For the assay, the system named is SARS-CoV-2 Wuhan-Hu-1 D614G, Caco-2 cells. It counts as cell-based. As to conditions: for IC50: Caco-2 cells; for SARS-CoV-2 infection, Mean (0 nM = 100): Fig. 6b, D614G isolate.
The mark [1] stands for this setting: in-cell ELISA 2 days post infection.

Counter-ions that a name gives are not always drawn. Like-named read-outs stand apart in the source and are kept apart here.

For `CN(C)C(=O)COC(=O)Cc1ccc(OC(=O)c2ccc(NC(=N)N)cc2)cc1` [CM, camostat mesylate, reference compound], the concentration for half-maximal inhibition (IC50) came to 26.7 µM (2 days post infection) and 26.7 µM under setting [1]. In addition, the “SARS-CoV-2 infection, Mean (0 nM = 100)” value was 93.4834 (compound 32 nM); 88.1889 (compound 160 nM); 88.3001 (compound 800 nM); 93.3101 (compound 4000 nM); 68.3858 (compound 20000 nM); 1.574 (compound 100000 nM).
As for ace-Arg-Pro-Arg-kbt [Compound 2], the concentration for half-maximal inhibition (IC50) was 17.1 µM (2 days post infection) and 17.1 µM under setting [1]. Also, the “SARS-CoV-2 infection, Mean (0 nM = 100)” value runs as follows: (compound 32 nM) 95.739; (compound 160 nM) 98.0747; (compound 800 nM) 97.5395; (compound 4000 nM) 101.461; (compound 20000 nM) 23.4531; (compound 100000 nM) 0.121.

The IC50 is the concentration that gives 50% inhibition. Read a high IC50 as weaker potency in that assay.

(Values after article PMC9270327 (Communications Biology, 2022).)
